Residues, ends and D or L forms follow the SMILES beside them.
How the values were obtained:
Format in all cases: cell-based, human
[1] = system: U1 dsRNA binding on the surface of NHEKs; test: Surface binding of Alexa 488-labeled U1 dsRNA to NHEKs; conditions: Alexa 488 U1 0.05-10 μg/ml + peptide 2.5 μM, 10 min on ice; fluorometer RFU, n = 3
Method: We also assayed the dynamics of binding of U1 dsRNA on the surface of NHEKs in the presence of LL-34 mutant peptides. NHEKs were exposed to fluorescent Alexa 488–labeled U1 at increasing concentrations (0.05–10 μg/ml) and LL-34 parent peptide, LL-34 I24A, LL-34 L31A, LL-34 K25A, and LL-34 proline at isoleucine position 20 (I20P) for 10 min on ice to allow for surface binding of U1 to cells in the presence of peptides (Fig. 5A).
Figure 5 Biophysical properties of binding of U1 dsRNA to LL-34 peptides and SRB1 protein.A, NHEKs were treated with Alexa 488–labeled U1 dsRNA or a combination of Alexa 488–labeled U1 dsRNA (0.05–10 μg/ml) and LL-34 peptides LL-34 parent, LL-34 I24A, LL-34 K25A, LL-34 L31A, and LL-34 I20P at 2.5 μM as shown. The cells were prechilled on ice for 15 min before the addition of U1 dsRNA and/or LL-34 peptides, and the surface binding of U1 dsRNA was allowed for 10 min. The amount of U1 dsRNA binding to NHEKs was assessed with a fluorometer, and data are represented as relative fluorescence units (RFUs) (n = 3). B, NHEKs were similarly treated with Alexa-labeled U1 dsRNA (1.5 μg/ml) and/or unlabeled U1 dsRNA (15 μg/ml) with the addition of LL-34 parent peptide at 2.5 μM. The experiment was performed on ice for 10 min, and the relative binding of Alexa 488 U1 dsRNA was assessed on a fluorometer and is shown as RFU (n = 3) (∗p < 0.05) one-way ANOVA. C, SAXS spectra of LL-34 peptides LL-34 parent, LL-34 F5A, LL-34 I24A, and LL-34 L31A incubated with U1 dsRNA. The peptide-U1 dsRNA (P/R) ratio is varied at 1 and 2 for all conditions. The U1 dsRNA interhelical spacing (Q) was calculated by the peak position. The domain size (L) was calculated by the full width at half maximum of the first peak. LL-34, 34-amino acid peptide; NHEKs, normal human epidermal keratinocytes; SAXS, small-angle X-ray scattering.

[2] = system: TBK1 and IRF7 phosphorylation in NHEKs; test: Immunoblot of MAVS pathway signaling in NHEKs; conditions: U1 dsRNA 2.5 μg/ml + peptide 2 μM, in comparison to U1 + LL-34 parent
Excerpt: RNA-Seq was utilized to obtain a global transcriptomic profile and map unique immune pathways in NHEKs exposed to U1 dsRNA, LL-34 parent, Pep I24A, Pep L31A, and a combination of U1 dsRNA and LL-34 parent, Pep I24A, or Pep L31A. […] Similarly, 448 and 325 unique differentially regulated genes were observed after U1 + I24A and U1 + L31A treatments, respectively (Fig. 3, A and B and Fig. S2, A and B). […] These pathways included type 1 interferon signaling, cytokine signaling, response to external biotic stimulus, and cytokine-mediated signaling pathway. […] We verified the repression of mitochondrial antiviral signaling (MAVS) with immunoblot analysis. […]
Figure 3 LL-34 I24A and L31A mutations result in loss of innate immune vetting of U1 dsRNA leading to repressed activation of antiviral and innate immune pathways.A, Venn diagram for all differentially expressed genes from NHEKs treated with U1 dsRNA, LL-34-parent, and combinations of either U1 dsRNA and LL-34-parent. […] Protein expression of p-TBK1, TBK1, p-IRF7, IRF7, p-Akt, Akt, p-ERK1/2, and ERK1/2 was assessed with immunoblot. […]
Cells were lysed in complete radioimmunoprecipitation assay buffer with added 1× protease and Phosphatase Inhibitor Cocktail (Life Technologies). […] Total protein was quantified for each treatment with Bio-Rad Protein Assay (Bio-Rad). […]

[3] = system: NHEKs, differentially expressed genes; test: RNA-Seq transcriptomic profile of NHEKs; conditions: U1 + peptide in comparison to U1 + LL-34 parent, protein-protein interaction networks from RNA-Seq
Excerpt: RNA-Seq was utilized to obtain a global transcriptomic profile and map unique immune pathways in NHEKs exposed to U1 dsRNA, LL-34 parent, Pep I24A, Pep L31A, and a combination of U1 dsRNA and LL-34 parent, Pep I24A, or Pep L31A. […] Similarly, 448 and 325 unique differentially regulated genes were observed after U1 + I24A and U1 + L31A treatments, respectively (Fig. 3, A and B and Fig. S2, A and B). […] These pathways included type 1 interferon signaling, cytokine signaling, response to external biotic stimulus, and cytokine-mediated signaling pathway. […] We verified the repression of mitochondrial antiviral signaling (MAVS) with immunoblot analysis. NHEKs were treated with U1 dsRNA, LL-34 parent, Pep I24A, Pep L31A, or with a combination of U1 and LL-34 parent, U1 and Pep I24A, or U1 and Pep L31A (Fig. 3E).
RNA was extracted using a PureLink RNA Mini Kit (Life Technologies). Isolated RNA was submitted to the UCSD IGM Genomics Center for RNA-Seq performed on a high-output run V4 platform (Illumina) with a single-read 100 cycle runs. Data alignment was done on Partek Flow software (Partek) with Tophat2 (version 2.0.8). Gene Ontology enrichment analysis was performed on differentially regulated genes (≥1.5-fold) using Partek Flow software. The protein–protein interaction network was generated in the InnateDB database ([44]).

| SMILES | Binding of Alexa 488-labeled U1 dsRNA on the NHEK cell surface [1] | Phosphorylation of TBK1 and IRF7 [2] | Type I interferon signaling and RIGI antiviral pathway genes (STAT, ISG15, OAS1, IRF2, DDX58, MAVS) [3] |
| --- | --- | --- | --- |
| CC[C@H](C)[C@H](NC(=O)[C@H](CCCCN)NC(=O)[C@H](CCC(=O)O)NC(=O)[C@H](CCCCN)NC(=O)[C@H](CO)NC(=O)[C@H](CCCCN)NC(=O)[C@H](CCCNC(=N)N)NC(=O)[C@H](Cc1ccccc1)NC(=O)[C@H](Cc1ccccc1)NC(=O)[C@H](CC(=O)O)NC(=O)CNC(=O)[C@H](CC(C)C)NC(=O)[C@@H](N)CC(C)C)C(=O)NCC(=O)N[C@@H](CCCCN)C(=O)N[C@@H](CCC(=O)O)C(=O)N[C@@H](Cc1ccccc1)C(=O)N[C@@H](CCCCN)C(=O)N[C@@H](CCCNC(=N)N)C(=O)N[C@H](C(=O)N[C@H](C(=O)N[C@@H](CCC(N)=O)C(=O)N[C@@H](CCCNC(=N)N)C(=O)N[C@@H](C)C(=O)N[C@@H](CCCCN)C(=O)N[C@@H](CC(=O)O)C(=O)N[C@@H](Cc1ccccc1)C(=O)N[C@@H](CC(C)C)C(=O)N[C@@H](CCCNC(=N)N)C(=O)N[C@@H](CC(N)=O)C(=O)N[C@@H](CC(C)C)C(=O)N[C@H](C(=O)N1CCC[C@H]1C(=O)N[C@@H](CCCNC(=N)N)C(=O)O)C(C)C)C(C)C)[C@@H](C)CC [LL-34—I24A] (H-LLGDFFRKSKEKIGKEFKRIVQRAKDFLRNLVPR-OH) | nonsaturable binding | Decreased phosphorylation | repressed |
| CC[C@H](C)[C@H](NC(=O)[C@H](CCCCN)NC(=O)[C@H](CCC(=O)O)NC(=O)[C@H](CCCCN)NC(=O)[C@H](CO)NC(=O)[C@H](CCCCN)NC(=O)[C@H](CCCNC(=N)N)NC(=O)[C@H](Cc1ccccc1)NC(=O)[C@H](Cc1ccccc1)NC(=O)[C@H](CC(=O)O)NC(=O)CNC(=O)[C@H](CC(C)C)NC(=O)[C@@H](N)CC(C)C)C(=O)NCC(=O)N[C@@H](CCCCN)C(=O)N[C@@H](CCC(=O)O)C(=O)N[C@@H](Cc1ccccc1)C(=O)N[C@@H](CCCCN)C(=O)N[C@@H](CCCNC(=N)N)C(=O)N[C@H](C(=O)N[C@H](C(=O)N[C@@H](CCC(N)=O)C(=O)N[C@@H](CCCNC(=N)N)C(=O)N[C@H](C(=O)N[C@@H](CCCCN)C(=O)N[C@@H](CC(=O)O)C(=O)N[C@@H](Cc1ccccc1)C(=O)N[C@@H](CC(C)C)C(=O)N[C@@H](CCCNC(=N)N)C(=O)N[C@@H](CC(N)=O)C(=O)N[C@@H](C)C(=O)N[C@H](C(=O)N1CCC[C@H]1C(=O)N[C@@H](CCCNC(=N)N)C(=O)O)C(C)C)[C@@H](C)CC)C(C)C)[C@@H](C)CC [LL-34—L31A] (H-LLGDFFRKSKEKIGKEFKRIVQRIKDFLRNAVPR-OH) | nonsaturable binding | Decreased phosphorylation | – |
